The source of these data is patent US12552825B2 (Zikani Therapeutics, Inc., priority 2019, dated 2026).

Each structure is given as a SMILES string. Values after ≈ are worked out from the molar mass of the structure shown.

Common to all, as to assay type: cell-based
The test system of assay [1] is S. aureus MP-12. As to the kind of experiment: microbe, parasite or virus in culture. Conditions: Staphylococcus aureus, MP12, read-out: MIC S. aureus MP-12.
Assay [2] has as its system P. aeruginosa MP-3. In words: MIC determination by CLSI broth dilution, P. aeruginosa MP-3. Conditions: Pseudomonas aeruginosa, MP3, strain MP-3.
Assay [3] deals with A. baumannii MP-15. As to the kind of experiment: MIC determination by CLSI broth dilution, A. baumannii MP-15. Conditions: Acinetobacter baumannii, MP15, strain MP-15, read-out: MIC A. baumanii MP-15.
For assay [4], the system named is K. pneumoniae MP-648. As to the kind of experiment: MIC determination by CLSI broth dilution, K. pneumoniae MP-648. The conditions noted are these: strain MP-648; for MIC: Klebsiella pneumoniae, MP648, CLSI broth dilution. A general note: Dilution methods test growth across graded concentrations, often in twofold steps.
In assay [5] the test system is E. coli MP-4. In words: MIC determination by CLSI broth dilution, E. coli MP-4. Conditions: Escherichia coli, MP4, CLSI broth dilution; strain MP-4.
For assay [6], the system named is K. pneumoniae MP-546. As to the kind of experiment: MIC determination by CLSI broth dilution, K. pneumoniae MP-546. Conditions: Klebsiella pneumoniae, MP546, CLSI broth dilution; strain MP-546.

For `CCCN1CCC([C@@H](O)[C@H]2COC(=O)C(C)(C)C(=O)[C@H](C)[C@@H](O[C@@H]3O[C@H](C)C[C@H](N(C)C)[C@H]3O)[C@](C)(OC)C[C@@H](C)CN2C)CC1` [Compound 24], the MIC is 4 to 32 µg/mL (≈ 6.1 to 48.8 µM) in assay [1]; greater than 32 µg/mL in assay [2]; greater than 32 µg/mL in assay [3]; greater than 32 µg/mL in assay [4]; 4 to 32 µg/mL (≈ 6.1 to 48.8 µM) in assay [5]; 4 to 32 µg/mL (≈ 6.1 to 48.8 µM) in assay [6].

With `CO[C@]1(C)C[C@@H](C)CN(C)[C@H](CC2CCN(C=O)CC2)COC(=O)C(C)(C)C(=O)[C@H](C)[C@H]1O[C@@H]1O[C@H](C)C[C@H](N(C)C)[C@H]1O` [Compound 64], the MIC in assay [1], in assay [2], in assay [3], in assay [4], in assay [5] and in assay [6] was greater than 32 µg/mL in each case.

Turning to `C=C(C)C[C@]1(C)C(=O)OC[C@@H](CC2CCN(CCCCCCC)CC2)N(C)C[C@H](C)C[C@@](C)(OC)[C@H](O[C@@H]2O[C@H](C)C[C@H](N(C)C)[C@H]2O)[C@@H](C)C1=O` [Compound 172], the MIC in assay [1] is 4 to 32 µg/mL (≈ 5.43 to 43.5 µM); in assay [2] it was greater than 32 µg/mL; in assay [3], greater than 32 µg/mL; in assay [5] it was 4 to 32 µg/mL (≈ 5.43 to 43.5 µM); in assay [6], 4 to 32 µg/mL (≈ 5.43 to 43.5 µM). In addition, the “MIC K. pneumoniae MP-648” value in assay [4] (CLSI broth dilution) is “++ (values of greater than 4 mg/L and less than or equal to 32 mg/L)”.

In the case of `CO[C@]1(C)C[C@@H](C)CN(C)[C@@H](CCCN2CCC[C@@H]2C(F)(F)F)COC(=O)C(C)(C)C(=O)[C@H](C)[C@H]1O[C@@H]1O[C@H](C)C[C@H](N(C)C)[C@H]1O` [Compound 123, (3S,6R,8R,9R,10R)-9-(((2S,3R,4S,6R)-4-(dimethylamino)-3-hydroxy-6-methyltetrahydro-2H-pyran-2-yl)oxy)-8-methoxy-4,6,8,10,12,12-hexamethyl-3-(3-((R)-2-(trifluoromethyl)pyrrolidin-1-yl)propyl)-1-oxa-4-azacyclotridecane-11,13-dione], the MIC in assay [1], in assay [2], in assay [3], in assay [4], in assay [5] and in assay [6] was greater than 32 µg/mL throughout.

Take `CO[C@]1(C)C[C@@H](C)CN(C)[C@@H](CCCN2CCC[C@@H]2C)COC(=O)C(C)(C)C(=O)[C@H](C)[C@H]1O[C@@H]1O[C@H](C)C[C@H](N(C)C)[C@H]1O` [Compound 117, (3S,6R,8R,9R,10R)-9-(((2S,3R,4S,6R)-4-(dimethylamino)-3-hydroxy-6-methyltetrahydro-2H-pyran-2-yl)oxy)-8-methoxy-4,6,8,10,12,12-hexamethyl-3-(3-((S)-2-methylpyrrolidin-1-yl)propyl)-1-oxa-4-azacyclotridecane-11,13-dione]: the MIC in assay [1] is less than 4 µg/mL; in assay [2], greater than 32 µg/mL; in assay [3], greater than 32 µg/mL; in assay [4] it was less than 4 µg/mL; in assay [5] it was less than 4 µg/mL; in assay [6], less than 4 µg/mL.

As to `CO[C@]1(C)C[C@@H](C)CN(C)[C@@H](CCCN2CCOCC2)COC(=O)C(C)(C)C(=O)[C@H](C)[C@H]1O[C@@H]1O[C@H](C)C[C@H](N(C)C)[C@H]1O` [Compound 105, (3S,6R,8R,9R,10R)-9-(((2S,3R,4S,6R)-4-(dimethylamino)-3-hydroxy-6-methyltetrahydro-2H-pyran-2-yl)oxy)-8-methoxy-4,6,8,10,12,12-hexamethyl-3-(3-morpholinopropyl)-1-oxa-4-azacyclotridecane-11,13-dione], the MIC in assay [1] was 4 to 32 µg/mL (≈ 6.37 to 51 µM); in assay [2], greater than 32 µg/mL; in assay [3], greater than 32 µg/mL; in assay [4], 4 to 32 µg/mL (≈ 6.37 to 51 µM); in assay [5] it was less than 4 µg/mL; in assay [6], 4 to 32 µg/mL (≈ 6.37 to 51 µM).

Take `CO[C@]1(C)C[C@@H](C)CN(C)[C@@H](CCCN2CCc3ccccc3C2)COC(=O)C(C)(C)C(=O)[C@H](C)[C@H]1O[C@@H]1O[C@H](C)C[C@H](N(C)C)[C@H]1O` [Compound 120, (3S,6R,8R,9R,10R)-3-(3-(3,4-dihydroisoquinolin-2 (1H)-yl)propyl)-9-(((2S,3R,4S,6R)-4-(dimethylamino)-3-hydroxy-6-methyltetrahydro-2H-pyran-2-yl)oxy)-8-methoxy-4,6,8,10,12,12-hexamethyl-1-oxa-4-azacyclotridecane-11,13-dione]: the MIC in assay [1] was less than 4 µg/mL; in assay [2], greater than 32 µg/mL; in assay [3], 4 to 32 µg/mL (≈ 5.94 to 47.5 µM); in assay [4] it was less than 4 µg/mL; in assay [5], less than 4 µg/mL; in assay [6], less than 4 µg/mL.

As to `CO[C@]1(C)C[C@@H](C)CN(C)[C@@H]([C@H](O)C2CCN(CC3CC3)CC2)COC(=O)C(C)(C)C(=O)[C@H](C)[C@H]1O[C@@H]1O[C@H](C)C[C@H](N(C)C)[C@H]1O` [Compound 23, (3R,6R,8R,9R,10R)-3-((R)-(1-(cyclopropylmethyl)piperidin-4-yl)(hydroxy)methyl)-9-(((2S,3R,4S,6R)-4-(dimethylamino)-3-hydroxy-6-methyltetrahydro-2H-pyran-2-yl)oxy)-8-methoxy-4,6,8,10,12,12-hexamethyl-1-oxa-4-azacyclotridecane-11,13-dione], the MIC in assay [1] is 4 to 32 µg/mL (≈ 5.99 to 47.9 µM); in assay [2], greater than 32 µg/mL; in assay [3], greater than 32 µg/mL; in assay [4], 4 to 32 µg/mL (≈ 5.99 to 47.9 µM); in assay [5], 4 to 32 µg/mL (≈ 5.99 to 47.9 µM); in assay [6], 4 to 32 µg/mL (≈ 5.99 to 47.9 µM).

For `CCC(CC)CN1CCC(C[C@@H]2COC(=O)C(C)(C)C(=O)[C@H](C)[C@@H](O[C@@H]3O[C@H](C)C[C@H](N(C)C)[C@H]3O)[C@](C)(OC)C[C@@H](C)CN2C)CC1` [Compound 58], the MIC in assay [1] is 4 to 32 µg/mL (≈ 5.87 to 46.9 µM); in assay [2], greater than 32 µg/mL; in assay [3], greater than 32 µg/mL; in assay [4], less than 4 µg/mL; in assay [5], less than 4 µg/mL; in assay [6], less than 4 µg/mL.

Consider `CO[C@]1(C)C[C@@H](C)CN(C)[C@H]([C@@H](O)C2CCN(C(C)C)CC2)COC(=O)C(C)(C)C(=O)[C@H](C)[C@H]1O[C@@H]1O[C@H](C)C[C@H](N(C)C)[C@H]1O` [Compound 27], for which the MIC in assay [1] was greater than 32 µg/mL; in assay [2], greater than 32 µg/mL; in assay [3], greater than 32 µg/mL; in assay [4], greater than 32 µg/mL; in assay [5], 4 to 32 µg/mL (≈ 6.1 to 48.8 µM); in assay [6] it was 4 to 32 µg/mL (≈ 6.1 to 48.8 µM).

Turning to `CO[C@]1(C)C[C@@H](C)CN(C)[C@H](C[C@H]2C[C@H](N(C)C)C2)COC(=O)C(C)(C)C(=O)[C@H](C)[C@H]1O[C@@H]1O[C@H](C)C[C@H](N(C)C)[C@H]1O` [Compound 111, (3R,6R,8R,9R,10R)-9-(((2S,3R,4S,6R)-4-(Dimethylamino)-3-hydroxy-6-methyltetrahydro-2H-pyran-2-yl)oxy)-3-(((1r,3S)-3-(dimethylamino)cyclobutyl)methyl)-8-methoxy-4,6,8,10,12,12-hexamethyl-1-oxa-4-azacyclotridecane-11,13-dione], the MIC in assay [1] was 4 to 32 µg/mL (≈ 6.54 to 52.3 µM); in assay [2], greater than 32 µg/mL; in assay [3], greater than 32 µg/mL; in assay [4], less than 4 µg/mL; in assay [5], less than 4 µg/mL; in assay [6], less than 4 µg/mL.
